{"source": "patent US20240271089A1", "about": "“METHODS TO GENERATE MACULAR, CENTRAL AND PERIPHERAL RETINAL PIGMENT EPITHELIAL CELLS” (THE U.S.A., as represented by the Secretary, Department of …, priority 2021, published 2024)", "key": {"iPSC-RPE [1]": {"test_system": "iPSC-RPE", "assay": "iPSC-RPE cell area morphometry (REShAPE) after compound treatment", "format": "cell-based", "conditions": "compared with macular (P1) and peripheral (P3) human RPE and the DMSO control", "method": "FIG. 13. Testing different concentrations of AGN 193109 and endo-IWR-1 to reproduce macular (P1), central (P2) and peripheral (P3) cells. A range of concentrations of AGN 193109 and endo-IWR-1 were tested that could be used to reproduce macular, central and peripheral RPE populations (labeled P1, P2 and P3, respectively). Population 1 (P1, macular cells) can be reproduced with […] of AGN 193109. Population 3 (P3, peripheral) can be reproduced with 1 mM-4 mM of endo-IWR-1. A gradient of AGN 193109 and endo-IWR-1 could be used to replicate human RPE population 2 (P2, central)—central RPE cells. In one example, this can be reproduced with 25 nM-50 nM of AGN 193109 and 0.1 mM-0.5 mM of endo-IWR-1. Boxplots relative to DMSO, P1, P2 and P3 are plotted on the left side of the graph as a reference for cell size comparison. Five concentrations were tested for AGN 193109 and endo-IWR-1.\nScreening of Compound Library and Imaging: 115 drugs targeting various developmental pathways or cytoskeletal stressors were selected to form a new developmental library of compounds. The drugs are either activators or inhibitors of various signaling pathways and target proteins at different levels of the signaling cascades. For each drug, an initial concentration was selected, and adjustments made to the concentration of each drug. The assays were performed on iPSC-derived committed RPE. For every drug, the concentration was lowered if toxicity was detected or increased if there was no evident effect on cell morphology in comparison to control. The list of compounds tested can be found in Table 1. The high-content screening was performed in 384-well plates (cat #6057300, Perkin Elmer) using a range of 3 different concentrations (3×, 1×, 0.3×). All drugs were reconstituted in dimethyl sulfoxide (DMSO, cat #D2650, Sigma) and 40 ul of each drug was aliquoted in triplicate in a 384-well master plate. Serial dilutions with RPEGM were then performed to obtain the final desired working concentrations and the final plates were stored at −80° C. […]"}, "iPSC-RPE [2]": {"test_system": "iPSC-RPE", "assay": "Trans-epithelial electrical resistance (TER) of treated iPSC-RPE monolayer", "format": "cell-based, human", "conditions": "for TER relative to cutoff / epithelial barrier integrity, in words: cutoff of 400 ohm*cm^2; for trans-epithelial electrical resistance (TER): fully mature iPSC-RPE, minimum threshold 400 Ωcm^2, DMSO around 1100 Ωcm^2", "method": "(§1) Different techniques were used to study RPE morphologic features.\nAt this point the trans-epithelial electrical resistance (TER) was assayed to confirm the quality of differentiation and examine the effect of drugs on tight junction integrity. The minimum threshold of 400 Ωcm^2 for epithelial resistance per unit area is used to determine good batches of differentiation.\nTrans-epithelial electrical resistance (TER) is a measure of the tightness of the monolayer. The tighter the monolayer, the healthier are the cells in the monolayer. A cutoff of 400 ohm*cm^2 was used to exclude cells with low TER. […] The range specifies 90% of the data."}, "iPSC-RPE [3]": {"test_system": "iPSC-RPE", "assay": "Scanning electron microscopy of apical processes of treated iPSC-RPE", "format": "cell-based, human", "conditions": "for type of apical processes enriched: SEM, DMSO control shows both petal and finger-like types", "method": "FIG. 11. Defining petal (undulated) and finger-like apical processes. The transversal section of apical processes was measured to precisely define their shape. Petal-like apical processes, obtained by treating RPE cells with AGN 193109, have an average transversal length of 1.68 μm (length min 0.5, max 4 μm) and width of 0.20 μm (width min 0.1, max 1 μm). The petal-like apical processes are also wavy along their length. The width of the undulation ranges from 0.2 to 2 μm. Finger-like apical processes, obtained by treating RPE cells with endo-IWR-1, are cylindrical and have the same average transversal length and width of 0.23 μm (min 0.1, max 1 microns). An example of how measurements of the apical processes was done is shown for each type of apical processed.\nas §1\n(§2) Finally, transmission electron microscopy (TEM) was used to detect fine morphological alterations, whereas scanning electron microscopy (SEM) was essential to study modifications in apical processes structures. […] In DMSO-treated iPSC-RPE we found both types of apical processes, petal and finger-like."}, "iPSC-RPE [4]": {"test_system": "iPSC-RPE", "assay": "Pigmentation (brightfield), gross (H&E) and fine (TEM) morphology of treated iPSC-RPE", "format": "cell-based, human", "conditions": "for gross cell morphology: H&E staining; for gross cell morphology / pigmentation levels / fine intracellular structure: AGN 193109 0.2 μM, endo-IWR-1 4 uM; for pigmentation levels: brightfield imaging, compared with DMSO; for fine intracellular structure: transmission electron microscopy; for effect on iPSC-RPE health / healthy RPE phenotype: verified by TER, brightfield, H&E and TEM", "description": "as §1\nBrightfield imaging was used to determine RPE pigmentation defects, while hematoxylin and eosin (H&E) staining was valuable to inspect gross morphologic alterations of the monolayer. A section of transwell membrane was cut and mounted on a glass slide for brightfield imaging. Pigmentation levels were preserved after ENDO-1-IWR and AGN 193109 treatments as compared to DMSO-treated iPSC-RPE.\nas §2\nAGN 193109 was used at 0.2.μM and endo-IWR-1 at 4 uM. Both agents were dissolved in DMSO, so that the final concentration of DMSO was not more than 0.1%. The final concentration of DMSO control was 0.1%. The compounds were added in RPE maturation medium until cells were mature. Gross cell morphology was also analyzed (FIGS. 15B, 15E, and 15F, left image) to detect possible abnormalities. Fine intracellular structures were examined for alterations with transmission electron microscopy (TEM, FIGS. 15B, 15E, and 15F, right image)."}, "iPSC-RPE cells": {"test_system": "iPSC-RPE cells", "assay": "Phagocytosis test with labelled bovine outer segments, flow cytometry", "format": "cell-based, human", "conditions": "purified bovine outer segments, 4 hours, One-way ANOVA showed no difference", "method": "iPSC-RPE cells were provided purified bovine outer segment (mostly rod photoreceptors) to phagocytose. The outer segments were labelled with a dye that fluoresces when the outer segments are phagocytosed. RPE cells were incubated for 4 hours with outer segments and then analyzed with flow cytometry to measure outer segment ingestion, or put back in the incubator for 20 hours before performing flow cytometry to measure outer segment digestion."}, "iPSC-RPE [5]": {"test_system": "iPSC-RPE", "assay": "Acid phosphatase activity in lysates of treated RPE cells (p-nitrophenyl phosphate)", "format": "cell-based, human", "conditions": "compared with DMSO- or endo-IWR-1-treated cells", "method": "Acid phosphatase has higher expression in the macula (Boulton et al., The British Journal of Ophthalmology 78 (2), 125-9, doi: 10.1136/bjo.78.2.125 (1994)). This enzyme has an important role in photoreceptor outer segment digestion. The acid phosphatase activity was determined in cells treated with DMSO, AGN 193109 or endo-IWR-1. For these studies, RPE cells were lysed in distilled water to extract the enzyme. The lysates were then incubated with p-nitrophenyl phosphate, a phosphatase substrate that turns yellow when dephosphorylated by acid phosphatase. The color of the solution was measured with a spectrophotometer to estimate the enzyme activity."}}, "note": "Entries after “also recorded” stand apart in the source; their conditions may differ."}
{"smiles": "O=C(Nc1cccc2cccnc12)c1ccc(N2C(=O)C3C4C=CC(C4)C3C2=O)cc1", "note": "(stereo not drawn) [endo-IWR-1, 4-(1,3,3a,4,7,7a-Hexahydro-1,3-dioxo-4,7-methano-2H-isoindol-2-yl)-N-8-quinolinyl-Benzamide]", "values": [{"measurement": "human RPE population whose cell size is reproduced by treated iPSC-RPE", "setting": "iPSC-RPE [1]", "value": "peripheral"}, {"measurement": "human RPE population whose cell size is reproduced by treated iPSC-RPE", "setting": "iPSC-RPE [1]; listed as ENDO-1-IWR", "value": "comparable to cells of peripheral RPE population P3"}, {"measurement": "TER relative to cutoff / epithelial barrier integrity, in words", "setting": "iPSC-RPE [2]", "value": "well above the threshold; also recorded: well above this threshold"}, {"measurement": "trans-epithelial electrical resistance (TER)", "setting": "iPSC-RPE [2]", "value": "~1200 Ωcm^2"}, {"measurement": "type of apical processes enriched", "setting": "iPSC-RPE [3]", "value": "enriched cells with finger-like apical processes"}, {"measurement": "type of apical processes enriched", "setting": "iPSC-RPE [3]; listed as ENDO-1-IWR", "value": "all RPE cells were enriched uniquely by finger-like apical processes"}, {"measurement": "average transversal length of apical processes", "setting": "iPSC-RPE [3]; transversal section, FIG. 11", "value": 0.23, "unit": "μm"}, {"measurement": "average transversal width of apical processes", "setting": "iPSC-RPE [3]; transversal section, FIG. 11", "value": 0.23, "unit": "μm"}, {"measurement": "gross cell morphology", "setting": "iPSC-RPE [4]", "value": "nor did they affect gross or fine cell morphology"}, {"measurement": "gross cell morphology", "setting": "iPSC-RPE [4]; listed as ENDO-1-IWR", "value": "no gross morphological alterations were detected"}, {"measurement": "pigmentation levels", "setting": "iPSC-RPE [4]", "value": "did not alter pigmentation levels"}, {"measurement": "pigmentation levels", "setting": "iPSC-RPE [4]; listed as ENDO-1-IWR", "value": "preserved"}, {"measurement": "pigmentation levels", "setting": "iPSC-RPE [4]; listed as Endo-IWR-1", "value": "did not alter pigmentation levels"}, {"measurement": "fine intracellular structure", "setting": "iPSC-RPE [4]", "value": "nor did they affect gross or fine cell morphology"}, {"measurement": "fine intracellular structure", "setting": "iPSC-RPE [4]; listed as ENDO-1-IWR", "value": "no fine intracellular structure defects were identified"}, {"measurement": "effect on iPSC-RPE health / healthy RPE phenotype", "setting": "iPSC-RPE [4]; listed as ENDO-1-IWR", "value": "not disruptive of iPSC-RPE health; also recorded: did not affect the healthy RPE phenotype"}, {"measurement": "outer segment ingestion", "setting": "iPSC-RPE cells", "value": "ingest (peripheral cells) more outer segments"}]}
{"smiles": "Cc1ccc(C2=CCC(C)(C)c3ccc(C#Cc4ccc(C(=O)O)cc4)cc32)cc1", "note": "[AGN 193109, 4-[2-[5,6-Dihydro-5,5-dimethyl-8-(4-methylphenyl)-2-naphthalenyl]ethynyl]-benzoic acid]", "values": [{"measurement": "human RPE population whose cell size is reproduced by treated iPSC-RPE", "setting": "iPSC-RPE [1]", "value": "comparable to the dimension of macular RPE population (P1)"}, {"measurement": "TER relative to cutoff / epithelial barrier integrity, in words", "setting": "iPSC-RPE [2]", "value": "well above the threshold; also recorded: well above this threshold"}, {"measurement": "trans-epithelial electrical resistance (TER)", "setting": "iPSC-RPE [2]", "value": "~1600 Ωcm^2"}, {"measurement": "type of apical processes enriched", "setting": "iPSC-RPE [3]", "value": "enriched RPE cells with petal-like apical processes (with undulation)"}, {"measurement": "average transversal width of apical processes", "setting": "iPSC-RPE [3]; transversal section, FIG. 11", "value": 0.20, "unit": "μm"}, {"measurement": "gross cell morphology", "setting": "iPSC-RPE [4]", "value": "no gross morphological alterations were detected; also recorded: nor did they affect gross or fine cell morphology"}, {"measurement": "pigmentation levels", "setting": "iPSC-RPE [4]", "value": "preserved; also recorded: did not alter pigmentation levels"}, {"measurement": "fine intracellular structure", "setting": "iPSC-RPE [4]", "value": "no fine intracellular structure defects were identified; also recorded: nor did they affect gross or fine cell morphology"}, {"measurement": "effect on iPSC-RPE health / healthy RPE phenotype", "setting": "iPSC-RPE [4]", "value": "not disruptive of iPSC-RPE health; also recorded: did not affect the healthy RPE phenotype"}, {"measurement": "acid phosphatase activity", "setting": "iPSC-RPE [5]", "value": "higher acid phosphatase activity"}]}
